From EP0237472A2, “An ameliorating agent for pulmonary fibrosis and the use thereof” (Zyma SA, priority 1986, dated 1987) come the findings set out here.

Series [1] is described as follows: acute oral toxicity (LD50) to male mice. To be noted: mouse, in vivo.
The test system of series [2] is female Sprague-Dawley rats. The series is described as follows: CCl4-induced lung fibrosis (lung collagen accumulation) in rats. It is filed as in vivo. As to the method: The animals used were female Sprague-Dawley rats fed on a commercial diet (Hankkija Cy, Helsinki, Finland). Forty rats were divided into four groups of 10, the first serving as a control group. In order to investigate the effect of Compound 4 on lung collagen accumulation, the injury was induced by injecting carbon tetrachloride (CC14) intraperitoneally at doses of 0.1 ml/100 g body weight (diluted with an equal volume of paraffin oil) twice a week for 40 days. The third group received simultaneous doses of CCl4 and Compound 4. Compound 4 was suspended in arabic gum and given by gastric intubation at doses of 100 mg/kg body weight 5 times weekly for 40 days. The fourth group received only Compound 4. Two animals both in the CC14 group died during the experiment.
At the end of the experiment, the rats were anaesthetized with ether, weighed, and decapitated. The lungs were rapidly removed, weighed and the right one of them stored at -70°C until assayed. Tissue specimens for the determination of hydroxyproline and total protein were homogenized with an Ultra-Turrax homogenizer at 0°C in 0.5 M acetic acid (5 ml/g of tissue), dialyzed against 0.5 M acetic acid, and hydrolyzed in 6 M HC1 at 120°C overnight. Tissue hydroxyproline was assayed by the method of Kivirikko et al. and tissue total protein using the a-amino nitrogen method of Rubinstein and Pryce.
The left lung was fixed by slowly injecting a 4% formaldehyde and 1% glutaraldehyde solution into the main bronchus with the 1 ml syringe under magnifying lens control. Inflation of the lungs with fixative was continued until the pleura was smooth and the organ appeared to be filled. The bronchus was then left unclosed and the lungs were placed in the same solution until fixed. When the bronchus is left unclosed, the human lungs, at least, seem to assume a fairly constant volume during fixation, a little greater than the functional residual capacity. The lungs were then sliced sagittally and the slices embedded in paraffin. Sections were cut at 5 µm and stained with heamatoxylin-eosin, Pearl's iron, van Gieson's and Verhoeff's elastic stains.

Where [3] appears, read: CCl4 + Compound 4 (group M+I), CCl4 0.1 ml/100 g i.p. twice a week, Compound 4 100 mg/kg orally 5 times weekly, 40 days.
Where [4] appears, read: Compound 4 alone (group M), 100 mg/kg by gastric intubation 5 times weekly for 40 days, no CCl4.

As usually defined, the LD50 is the dose expected to kill half of the subjects tested. In series [1], `CCCCOC(=O)C(C(=O)OCCCC)=C1SC=CS1` [Compound 5] registered an LD50 of over 6000 mg/kg.

Take `CCOC(=O)C(C(=O)OCC)=C1SC=CS1` [Compound 2]: the median lethal dose (LD50) in series [1] came out at 4900 mg/kg.

Turning to `CCOC(=O)C(C(=O)OC(C)C)=C1SC=CS1` [Compound 7], in series [1], the LD50 was determined as 2700 mg/kg.

Turning to `CC(C)OC(=O)C(C(=O)OC(C)C)=C1SC=CS1` [Compound 4], in series [2] (setting [3]), the “Lung relative protein (mg/g of lung weight)” value was 20.61±2.05 mg/g of lung weight, the “Lung total protein (mg/lungs)” value is 40.07±6.05 mg/lungs and the “Lung weight/ body weight (%)” value was 0.89±0.17%. In addition, the “total hydroxyproline content of the lungs” value in series [2] (CCl4 + Compound 4, 100 mg/kg orally, 40 days (Figure 1)) is given as “normalized the values”. Also, the “foci of necrotic alveolar walls” value in series [2] (CCl4 + Compound 4, histology) was “All the lungs showed some foci of necrotic alveolar walls”. In addition, in series [2] (CCl4 + Compound 4 compared with CCl4-induced rats without Compound 4, histology), the interstitial fibrosis entry was “less interstitial fibrosis”. Also, in series [2] (setting [4]), the “Lung relative protein (mg/g of lung weight)” value was 22.20±2.76 mg/g of lung weight, the “Lung total protein (mg/lungs)” value turned out to be 38.31±4.90 mg/lungs and the “Lung weight/ body weight (%)” value is recorded as 0.81±0.12%. The “lungs exhibiting a fairly normal alveolar pattern” value in series [2] (rats which received CCl4 and Compound 4, histology) is “Five out of the nine”. Further, the “lungs showing variable evidence of inflammatory reaction with minimal oedema” value in series [2] (rats which received CCl4 and Compound 4, nine lungs, histology) is “four”. Further, the “alveolar pattern in the lungs” value in series [2] (ten rats which received Compound 4 alone, histology) is on record as “normal”.

In the case of `CCCOC(=O)C(C(=O)OCCC)=C1SC=CS1` [Compound 3], the LD50 in series [1] was over 6000 mg/kg.

In turn, `COC(=O)C(C(=O)OCC(C)C)=C1SC=CS1` [Compound 8] registered an LD50 in series [1] of 5800 mg/kg.

In series [1], `CC(C)COC(=O)C(C(=O)OCC(C)C)=C1SC=CS1` [Compound 6] gave a 50% lethal dose (LD50) of 4700 mg/kg.

In the case of `COC(=O)C(C(=O)OC)=C1SC=CS1` [Compound 1], the median lethal dose (LD50) in series [1] is over 6000 mg/kg.
